In article doi:10.1101/2025.08.13.670122v1 (bioRxiv, 2025):
Peptide text beside a SMILES is read from it.

How the values were obtained:
AT1R [1] = target: T1, AT1R (Homo sapiens, UniProt P30556); assay: β-arrestin2 recruitment BRET (β-arrestin2-RLucII/rGFP-CAAX) in HEK293 cells expressing AT1R; format: cell-based; parameters: expressed in transfected cells; host or cells: HEK293 cells, transient PEI transfection; conditions: for Emax βarr2 (% AngII): HEK293/AT1R, β-arrestin2 BRET, response of the ligand at 10 μM, normalised to AngII; for EC50: HEK293 cells transiently expressing AT1R, β-arrestin2-RLucII/rGFP-CAAX BRET, read 10 min after ligand, mean ± SEM of at least three to five independent experiments, SEM, read-out: EC50 βarr2
T1 sequence (P30556 1-359): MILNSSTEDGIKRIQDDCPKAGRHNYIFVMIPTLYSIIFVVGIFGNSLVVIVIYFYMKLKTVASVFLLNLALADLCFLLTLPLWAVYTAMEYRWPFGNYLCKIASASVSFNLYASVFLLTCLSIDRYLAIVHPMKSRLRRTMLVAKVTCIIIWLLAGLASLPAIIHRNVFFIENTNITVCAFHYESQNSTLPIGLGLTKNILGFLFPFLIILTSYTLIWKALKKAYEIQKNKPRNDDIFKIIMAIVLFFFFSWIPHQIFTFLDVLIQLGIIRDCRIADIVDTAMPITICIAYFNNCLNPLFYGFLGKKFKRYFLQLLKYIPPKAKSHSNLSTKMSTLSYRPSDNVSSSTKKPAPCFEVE
Text: (§1) We utilized a clonal cell line HEK293, referred to hereafter as HEK293 cells, which has been previously described.[7],[8] As a gracious gift from A. Inoue (Tohoku University, Sendai, Miyagi, Japan), CRISPR Gαq/11 and Gα12/13 knockout cell lines (ΔGq/11 and ΔG12/13, respectively), were derived as previously explained.[48] In brief, a CRISPR-Cas9 system was used to target either GNAQ and GNA11 or GNA12 and GNA13 genes in HEK293T cells simultaneously to generate the Gαq/11 and Gα12/13 knockout cell lines. For the production of adenovirus, we utilized HEK293A cells. All cells were grown in DMEM supplemented with 10% FBS and Penicillin-Streptomycin-L-Glutamine (10000 IU penicillin, 10000 µg/mL Streptomycin, 200 mM L-Glutamine) at 37°C in T175 flasks under a 5% CO2 humidified chamber. Periodic testing was carried out for mycoplasma contamination (ABM™, Mycoplasma PCR Detection kit). For all biosensors used, cells underwent transfection with the PEI reagent, employing a PEI:DNA ratio of 3:1. For the Gαq biosensor, HEK293 cells were transfected with the plasmids coding for Gαq-RLucII (120 ng), Gβ1 (3000 ng), Gγ1-GFP10 (3000 ng), human AT1 (3000 ng) and Salmon sperm DNA (SSD) (880 ng). For the β-arrestin2 recruitment assay, HEK293 cells were transfected with the plasmids coding for 120 ng β-arrestin-2-RLucII, 3000 ng AT1, 3000 ng rGFP-CAAX, and 3880 ng SSD. For the measurement of PKC, HEK293 cells were transfected with 3000 ng AT1, 600 ng PKC-c1b, and 6400 ng SSD. […] 100 µL of the cell/DNA mixture was added to white 96-well plates and incubated at 37°C at 5% CO2 for 48 h. For the Rho assay, ΔG12/13 cells were seeded at a density of 9,000 cells per well in poly-ornithine-coated white 96-well plates and transfected the following day. In brief, 1 μg of total DNA in 100 μL of PBS was mixed with 100 μL of PBS containing 3 μL of 1 mg/mL PEI. For Rho signaling, 150 ng of AT1R DNA with 25 ng of PKN-RBD-RlucII [8], and 100 ng of rGFP-CAAX were used. Empty pcDNA was used to reach 1 µg of the total DNA amount in 100 μL of PBS. The DNA was then mixed with 100 μL of PBS containing 3 μL of 1 mg/mL PEI. After a 20-min incubation, the DNA/PEI complexes were dispensed into cells in 96-well plates (15 µL/well), and the experiment was carried out 48 h post-transfection.
(§2) On the day of the experiment, each well was washed with 80 µL of Tyrode’s buffer (140 mM NaCl, 2.7 mM KCl, 1 mM CaCl2, 12 mM NaHCO3, 5.6 mM D-glucose, 0.5 mM MgCl2, 0.37 mM NaH2PO4, 25 mM Hepes (pH 7.4)). This was followed by incubation for 1 h in Tyrode’s buffer at room temperature. For the Gαq, β-arrestin-2, and PKC biosensors used in HEK293 cells, coelenterazine 400A (at a final concentration of 5 μM) was added 10 min before stimulation. Cells were then stimulated with increasing doses of the indicated ligand, and BRET signals were measured using a Tristar2 (Berthold) microplate reader 10 min later. For the PKC and Rho biosensors in VSMCs, and the Rho biosensor in ΔG12/13 cells, cells were similarly stimulated with ligands for 1 min, 1 min 30 s, and 3 min, respectively, before BRET measurement. […] BRET signals were then measured using a Synergy2 (BioTek) microplate reader. The applied filter set was 410/80 nm and 515/30 nm, designed to detect the light emissions of RlucII (Renilla luciferase) (donor) and rGFP (acceptor), respectively.

AT1R [2] = target: T1, AT1R; assay: Gαq activation BRET (GABY sensor) in HEK293 cells expressing AT1R; format: cell-based; parameters: expressed in transfected cells; host or cells: HEK293 cells, transient PEI transfection; conditions: for Emax Gαq (% AngII): HEK293/AT1R, GABY BRET sensor, response of the ligand at 10 μM, normalised to AngII; for EC50: HEK293 cells transiently expressing human AT1R, Gαq-RlucII/Gβ1/Gγ1-GFP10 (GABY) BRET sensor, BRET read 10 min after ligand, mean ± SEM of at least three to five independent experiments, SEM
Text: as §1, §2

Plasma stability = format: in vitro ADME; conditions: male Sprague-Dawley rat plasma, 6 μL of 1 mM compound (10% DMSO) in 27 μL plasma, 37°C, 0-24 h, UPLC-MS, one-phase decay, mean ± SEM of at least three experiments, read-out: Plasmatic half-life t1/2 (±SEM)
Procedure: The degradation was quenched by adding 140 μL of 1% formic acid in an acetonitrile-ethanol (1:1) solution containing 0.25 mM of N,N-dimethylbenzamide (used as an internal standard). This mixture was initially transferred to an Impact Protein Precipitation filter plate (Phenomenex, California), the filtrates from which were subsequently collected in a second 96-well UPLC plate. Both plates were centrifuged at 500 g for 10 min while maintaining a temperature of 4°C. The filtrates were then diluted with 30 μL of distilled water and processed for analysis using an Acquity UPLC-MS system class H (using an Acquity UPLC protein BEH C18 column that measured 2.1 mm × 50 mm and had 1.7 μm particles with pores 130 Å in width). The peptide half-life, derived from the degradation curve, was calculated using the exponential one-phase decay function in GraphPad Prism 9. Degradation was estimated by comparing the mass spectrum at each point with those at the zero-minute mark. The data were presented as a mean ± SEM of at least three unique experiments, each performed in singlicate.

Row | Emax βarr2 (% AngII) (AT1R [1]) | EC50 (AT1R [1]) [nM] | Emax Gαq (% AngII) (AT1R [2]) | EC50 (AT1R [2]) [nM] | half-life at 182 µM (Plasma stability) [min] | SMILES
1 | 105 | 5.2 ± 1 | 37 | 7.5 ± 6.3 | – | CC[C@H](C)[C@H](NC(=O)[C@H](Cc1ccc(O)cc1)NC(=O)[C@@H](NC(=O)[C@H](CCCNC(=N)N)NC(=O)[C@@H](N)CC(=O)O)C(C)C)C(=O)N[C@@H](Cc1c[nH]cn1)C(=O)N1CCC[C@H]1C(=O)N[C@@H](Cc1ccncc1)C(=O)O [compound 17]
2 | – | – | – | – | 32 ± 3 | CC[C@H](C)[C@H](NC(=O)[C@H](Cc1ccc(O)cc1)NC(=O)[C@@H](NC(=O)[C@H](CCCNC(=N)N)NC(=O)[C@@H](N)CC(=O)O)C(C)C)C(=O)N[C@@H](Cc1c[nH]cn1)C(=O)N1CCC[C@H]1C(=O)N[C@@H](Cc1ccccc1Cl)C(=O)O [29a]
3 | 97 | 1 ± 0.3 | 69 | 3.9 ± 1.9 | – | CC[C@H](C)[C@H](NC(=O)[C@H](Cc1ccc(O)cc1)NC(=O)[C@@H](NC(=O)[C@H](CCCNC(=N)N)NC(=O)[C@@H](N)CC(=O)O)C(C)C)C(=O)N[C@@H](Cc1c[nH]cn1)C(=O)N1CCC[C@H]1C(=O)N[C@@H](Cc1ccc2ccccc2c1)C(=O)O [compound 9]
4 | 90 | 3.7 ± 0.7 | 31 | 22 ± 11 | – | CC[C@H](C)[C@H](NC(=O)[C@H](Cc1ccc(O)cc1)NC(=O)[C@@H](NC(=O)[C@H](CCCNC(=N)N)NC(=O)[C@@H](N)CC(=O)O)C(C)C)C(=O)N[C@@H](Cc1c[nH]cn1)C(=O)N1CCC[C@H]1C(=O)N[C@@H](Cc1cccnc1)C(=O)O [compound 18]

Second part, the molecule before the results:

Row | SMILES | Emax βarr2 (% AngII) (AT1R [1]) | EC50 (AT1R [1]) [nM] | Emax Gαq (% AngII) (AT1R [2]) | EC50 (AT1R [2]) [nM] | half-life at 182 µM (Plasma stability) [min]
5 | C=CCOc1ccc(C[C@H](NC(=O)[C@@H]2CCCN2C(=O)[C@H](Cc2c[nH]cn2)NC(=O)[C@@H](NC(=O)[C@H](Cc2ccc(O)cc2)NC(=O)[C@@H](NC(=O)[C@H](CCCNC(=N)N)NC(=O)[C@@H](N)CC(=O)O)C(C)C)[C@@H](C)CC)C(=O)O)cc1 [compound 10] | 100 | 7.4 ± 1.9 | 48 | 17 ± 10 | –
6 | CC[C@H](C)[C@H](NC(=O)[C@H](Cc1ccc(O)cc1)NC(=O)[C@@H](NC(=O)[C@H](CCCNC(=N)N)NC(=O)[C@@H](N)CC(=O)O)C(C)C)C(=O)N[C@@H](Cc1c[nH]cn1)C(=O)N1CCC[C@H]1C(=O)N[C@@H](CC1CCCCC1)C(=O)O [compound 4] | 95 | 1.4 ± 0.2 | 52 | 5.5 ± 3.9 | –
7 | CCCC[C@H](NC(=O)[C@@H]1CCCN1C(=O)[C@H](Cc1c[nH]cn1)NC(=O)[C@@H](NC(=O)[C@H](Cc1ccc(O)cc1)NC(=O)[C@@H](NC(=O)[C@H](CCCNC(=N)N)NC(=O)[C@@H](N)CC(=O)O)C(C)C)[C@@H](C)CC)C(=O)O [compound 2] | 92 | 0.86 ± 0.16 | 36 | 3 ± 3.6 | –
8 | CC[C@H](C)[C@H](NC(=O)[C@H](Cc1ccc(O)cc1)NC(=O)[C@@H](NC(=O)[C@H](CCCNC(=N)N)NC(=O)[C@@H](N)CC(=O)O)C(C)C)C(=O)N[C@@H](Cc1c[nH]cn1)C(=O)N1CCC[C@H]1C(=O)N[C@@H](Cc1c[nH]c2ccccc12)C(=O)O [compound 21] (H-DRVYIHPW-OH; N-terminus assumed) | 107 | – | 91 | – | –
